# System: hexokinase (from baker's yeast purchased from Sigma)
# Experiment: pyruvate kinase/lactate dehydrogenase coupled assay, NADH oxidation
# Format: biochemical
# Settings: read-out: Km(glucose); positive control; ATP co-substrate
smiles,measurement,value
OC[C@H]1OC(O)[C@H](O)[C@@H](O)[C@@H]1O (stereo partly shown) [glucose],Km,~300 µM
